{"source": "ChEMBL document CHEMBL5584214", "about": "“Design of MERS-CoV entry inhibitory short peptides based on helix-stabilizing strategies” (Bioorg Med Chem Lett, 2024)", "key": {"[1]": {"assay": "AUC (0 to t) in Sprague-Dawley rat at 4 mg/kg, iv administered as single dose and measured upto 36 hrs by LC-MS/MS analysis", "assay_type": "ADME, organism-based", "conditions": "in vivo"}, "[2]": {"assay": "MRT (0 to t) in Sprague-Dawley rat at 4 mg/kg, iv administered as single dose and measured upto 36 hrs by LC-MS/MS analysis", "assay_type": "ADME, organism-based", "conditions": "in vivo"}, "[3]": {"assay": "Half life in Sprague-Dawley rat at 4 mg/kg, iv administered as single dose and measured upto 36 hrs by LC-MS/MS analysis", "assay_type": "ADME, organism-based", "conditions": "in vivo"}, "[4]": {"assay": "Clearance in Sprague-Dawley rat at 4 mg/kg, iv administered as single dose and measured upto 36 hrs by LC-MS/MS analysis", "assay_type": "ADME, organism-based", "conditions": "in vivo"}, "[5]": {"assay": "Cmax in Sprague-Dawley rat at 4 mg/kg, iv administered as single dose and measured upto 36 hrs by LC-MS/MS analysis", "assay_type": "ADME, organism-based", "conditions": "in vivo"}, "[6]": {"assay": "Volume of distribution in Sprague-Dawley rat at 4 mg/kg, iv administered as single dose and measured upto 36 hrs by LC-MS/MS analysis", "assay_type": "ADME, organism-based", "conditions": "in vivo"}, "[7]": {"assay": "Inhibition of MERS-CoV Spike glycoprotein mediated cell-cell fusion", "design": "species or system Middle East respiratory syndrome-related coronavirus"}, "[8]": {"assay": "Water solubility of compound in dd-H2O", "assay_type": "physicochemical"}, "[9]": {"assay": "Water solubility of compound in PBS at pH 7.4", "assay_type": "physicochemical"}, "[10]": {"test_system": "Middle East respiratory syndrome-related coronavirus", "assay": "Antiviral activity against MERS CoV pseudovirus infected in Huh-7 cells assessed as inhibition of viral infection", "assay_type": "functional, organism-based"}, "[11]": {"assay": "Cytotoxicity against human Huh-7 cells infected with MERS CoV pseudovirus assessed as reduction in cell viability", "assay_type": "toxicity, cell-based"}, "[12]": {"assay": "Selectivity index, ratio of CC50 for human Huh-7 cells infected with MERS CoV pseudovirus to EC50 for MERS CoV pseudovirus infected in Huh-7 cells", "assay_type": "toxicity, cell-based", "conditions": "read-out: Ratio CC50/EC50"}, "[13]": {"test_system": "Middle East respiratory syndrome-related coronavirus", "assay": "Inhibition of MERS CoV spike glycoprotein HR1/HR2 fusion assessed as disruption of fusion-active core formation by measuring reduction in six-helix bundle density at 100 uM by native-PAGE analysis"}, "[14]": {"test_system": "Middle East respiratory syndrome-related coronavirus", "assay": "Inhibition of MERS CoV spike glycoprotein HR1/HR2 fusion assessed as disruption of fusion-active core formation by measuring increase in HR2P density at 100 uM by native-PAGE analysis"}}, "note": "Active and inactive are the calls of the source. No cut-off for these calls is given here. Non-standard residues stand in square brackets, D forms with d. Residues, ends and D or L forms follow the SMILES beside them. *: point of attachment. Palmitoyl = CCCCCCCCCCCCCCCC(=O)*; AEEA = NCCOCCOCC(=O)O; Aib = CC(C)(N)C(=O)O", "data": [{"compound": "CC[C@H](C)[C@H](NC(=O)[C@H](Cc1ccc(O)cc1)NC(=O)[C@H](CO)NC(=O)[C@H](CCC(=O)O)NC(=O)[C@H](CCC(=O)O)NC(=O)[C@H](CC(C)C)NC(=O)[C@H](CCCCN)NC(=O)[C@H](CCCCN)NC(=O)[C@@H](NC(=O)[C@@H](NC(=O)[C@H](CCC(=O)O)NC(=O)[C@H](CCC(=O)O)NC(=O)[C@H](CC(C)C)NC(=O)[C@H](CCCCN)NC(=O)[C@H](CCCCN)NC(=O)[C@H](CCSC)NC(=O)[C@H](CCC(=O)O)NC(=O)[C@H](Cc1ccc(O)cc1)NC(=O)[C@H](CCC(=O)O)NC(=O)[C@H](CC(C)C)NC(=O)[C@H](CC(=O)O)NC(=O)[C@H](CC(C)C)NC(=O)[C@H](CC(C)C)NC(=O)[C@@H](NC(=O)[C@@H](NC(=O)[C@H](CC(N)=O)NC(=O)[C@@H](NC(=O)[C@H](CCC(N)=O)NC(=O)[C@@H](NC(=O)[C@H](CC(C)C)NC(=O)[C@@H](N)CO)[C@@H](C)O)[C@@H](C)CC)[C@@H](C)O)[C@@H](C)O)C(C)C)C(C)C)C(=O)N[C@@H](CC(=O)O)C(=O)N[C@@H](CC(C)C)C(=O)N[C@@H](CCCCN)C(=O)N[C@@H](CCC(=O)O)C(=O)N[C@@H](CC(C)C)C(=O)O", "values": [{"measurement": "AUC(0-t) at 36 h", "setting": "[1]", "value": 6.45, "unit": "µg·h/mL"}, {"measurement": "MRT last at 36 h", "setting": "[2]", "value": 0.28, "unit": "h"}, {"measurement": "half-life", "setting": "[3]", "value": 0.35, "unit": "h"}, {"measurement": "clearance", "setting": "[4]", "value": 0.615, "unit": "L/h/kg"}, {"measurement": "Cmax", "setting": "[5]", "value": 30.4, "unit": "µg/mL"}, {"measurement": "Vd", "setting": "[6]", "value": 0.307, "unit": "L/kg"}, {"measurement": "EC50", "setting": "[7]", "value": 0.75, "unit": "µM"}]}, {"compound": "CCCCCCCCCCCCCCCC(=O)NCCCC[C@H](NC(=O)COCCOCCNC(=O)[C@H](Cc1ccc(O)cc1)NC(=O)[C@H](CO)NC(=O)[C@H](CCC(=O)O)NC(=O)[C@H](CC(N)=O)NC(=O)[C@H](CC(C)C)NC(=O)[C@H](CCCCN)NC(=O)[C@H](CCCCN)NC(=O)[C@@H](NC(=O)[C@@H](NC(=O)[C@H](CCC(=O)O)NC(=O)[C@H](CCC(N)=O)NC(=O)[C@H](CC(C)C)NC(=O)[C@H](CO)NC(=O)[C@H](CC(C)C)NC(=O)[C@H](CCSC)NC(=O)C(C)(C)NC(=O)[C@H](Cc1ccc(O)cc1)NC(=O)[C@@H](NC(=O)[C@H](CC(C)C)NC(=O)C(C)(C)NC(=O)[C@H](CC(C)C)NC(C)=O)[C@@H](C)O)C(C)C)C(C)C)C(N)=O", "note": "(Ac-L[Aib]LTY[Aib]MLSLQEVVKKLNESY[AEEA]K(Palmitoyl)-NH2)", "values": [{"measurement": "AUC(0-t) at 36 h", "setting": "[1]", "value": 59.8, "unit": "µg·h/mL"}, {"measurement": "MRT last at 36 h", "setting": "[2]", "value": 9.1, "unit": "h"}, {"measurement": "half-life", "setting": "[3]", "value": 7.27, "unit": "h"}, {"measurement": "clearance", "setting": "[4]", "value": 0.065, "unit": "L/h/kg"}, {"measurement": "Cmax", "setting": "[5]", "value": 5, "unit": "µg/mL"}, {"measurement": "Vd", "setting": "[6]", "value": 0.683, "unit": "L/kg"}, {"measurement": "solubility", "setting": "[8]", "value": 1.17, "unit": "µM"}, {"measurement": "solubility", "setting": "[9]", "value": 5.46, "unit": "µM"}, {"measurement": "EC50", "setting": "[7]", "value": 0.245, "unit": "µM"}, {"measurement": "EC50", "setting": "[10]", "value": 5.22, "unit": "µM"}, {"measurement": "CC50", "setting": "[11]", "value": "> 200", "unit": "µM"}, {"measurement": "selectivity ratio", "setting": "[12]", "value": "> 38.3"}, {"measurement": "inhibition", "setting": "[13]", "value": "Active"}, {"measurement": "inhibition", "setting": "[14]", "value": "Active"}]}, {"compound": "CSCC[C@H](NC(=O)[C@H](CCC(=O)O)NC(=O)[C@H](Cc1ccc(O)cc1)NC(=O)C(C)(C)NC(=O)[C@H](CC(C)C)NC(=O)[C@H](CC(=O)O)NC(=O)[C@H](CC(C)C)NC(C)=O)C(=O)NC(C)(C)C(=O)N[C@@H](CO)C(=O)N[C@@H](CC(C)C)C(=O)N[C@@H](CCC(N)=O)C(=O)N[C@@H](CCC(N)=O)C(=O)N[C@H](C(=O)N[C@H](C(=O)N[C@@H](CCCCN)C(=O)N[C@@H](C)C(=O)N[C@@H](CC(C)C)C(=O)N[C@@H](CC(N)=O)C(=O)N[C@@H](CCC(=O)O)C(=O)N[C@@H](CO)C(=O)N[C@@H](Cc1ccc(O)cc1)C(N)=O)C(C)C)C(C)C", "values": [{"measurement": "EC50", "setting": "[7]", "value": 24.4, "unit": "µM"}]}, {"compound": "CSCC[C@H](NC(=O)[C@H](CCC(=O)O)NC(=O)[C@H](Cc1ccc(O)cc1)NC(=O)[C@@H](NC(=O)[C@H](CC(C)C)NC(=O)[C@H](CC(=O)O)NC(=O)[C@H](CC(C)C)NC(C)=O)[C@@H](C)O)C(=O)N[C@@H](CC(C)C)C(=O)N[C@@H](CO)C(=O)N[C@@H](CC(C)C)C(=O)N[C@@H](CCC(N)=O)C(=O)N[C@@H](CCC(N)=O)C(=O)N[C@H](C(=O)N[C@H](C(=O)NC(C)(C)C(=O)N[C@@H](C)C(=O)N[C@@H](CC(C)C)C(=O)N[C@@H](CC(N)=O)C(=O)NC(C)(C)C(=O)N[C@@H](CO)C(=O)N[C@@H](Cc1ccc(O)cc1)C(N)=O)C(C)C)C(C)C", "values": [{"measurement": "EC50", "setting": "[7]", "value": 3.04, "unit": "µM"}]}]}
